What is called AUC(0-t) is the area under the concentration-time curve up to a stated or last time point. What is called Cmax is the highest concentration seen after dosing. For orientation: Tmax means the time at which the peak concentration occurs. The MRT inf is the average time that molecules of a dose stay in the body. Usually MRT last stands for a mean duration of stay, worked out from the concentration-time curve. One may read the half-life as how long it takes for the measured level to halve.

Several values for one entry are separate records, joined by “and”; a condition that tells them apart may be missing. Identical values can stand only once. Like-named read-outs stand apart in the source and are kept apart here.

The values below come from patent publication US20230146782A1, “DEOXYCHOLIC ACID COMPOUNDS, PHARMACEUTICAL COMPOSITIONS AND USES THEREOF” (priority 2019, published 2023).

The conditions of series [1]: rat.
Description: (§1) Formulation of preparation and dosing: An appropriate amount of the test sample was precisely weighed, and mixed with an appropriate volume of a solvent to obtain a clear solution or a homogeneous suspension. The preparation was administered to animals within 4 hours after formulation. The dosage formulation would be administered by oral gavage in accordance with facility standard operating procedures. The dosage volume would be determined by the body weights of the animals collected on the morning of administering.
(§2) Blood collection: Blood (approx. 0.2 ml per point in time) would be acupunctured each time from the jugular vein of every animal into a polypropylene tube. All blood samples would be transferred to pre-cooled commercial EDTA-K2 test tubes, and kept on wet ice until they were centrifuged.
(§3) Plasma processing: Blood samples would be centrifuged (3200 rpm, 10 min) at approximately 4° C. Plasma was collected separately and transferred to pre-labeled PP tubes in wet ice at each point in time, and then immediately precipitated by ACN (6 IS) (the ratio of plasma: ACN was 1:4). Centrifugation (10 min, 12,000 rpm) was carried out again to obtain a supernatant. The supernatant was quickly frozen on dry ice and kept at −70±10° C. before LC/MS/MS analysis.
(§4) Liver processing: Liver tissues were collected at each point in time, washed twice with pre-cooled deionized water, and dried with filter paper. Liver tissues were immediately homogenized with 10-times volume of a methanol-water solution (1:2, v/v). After homogenization, a portion of liver tissue homogenate (e.g., 200 uL of homogenate) was immediately measured and delivered to an analyst. After precipitated on wet ice, the samples were centrifuged, and a supernatant was collected and stored in a refrigerator at −70±10° C. before LC-MS/MS analysis. From the remaining liver homogenate, 800 uL of the homogenate was measured as a spare.
For series [2], the target named is T1, farnesoid X receptor (FXR) (Homo sapiens, UniProt Q96RI1).
T1 sequence (Q96RI1 1-486): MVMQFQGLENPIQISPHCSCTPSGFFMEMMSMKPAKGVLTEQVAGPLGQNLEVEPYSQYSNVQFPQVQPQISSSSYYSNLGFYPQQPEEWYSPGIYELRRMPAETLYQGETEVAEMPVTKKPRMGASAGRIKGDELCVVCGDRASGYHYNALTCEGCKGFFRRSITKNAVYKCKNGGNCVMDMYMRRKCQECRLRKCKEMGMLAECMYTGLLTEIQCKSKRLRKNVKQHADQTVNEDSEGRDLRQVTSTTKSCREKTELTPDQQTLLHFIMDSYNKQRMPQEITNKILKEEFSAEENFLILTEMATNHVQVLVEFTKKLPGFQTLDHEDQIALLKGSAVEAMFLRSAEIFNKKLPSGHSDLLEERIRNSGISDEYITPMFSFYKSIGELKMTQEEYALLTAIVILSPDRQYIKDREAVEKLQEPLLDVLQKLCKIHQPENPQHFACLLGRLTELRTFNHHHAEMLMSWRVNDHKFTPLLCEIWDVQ
The settings on record: reference literature: sandwich-cultured human hepatocytes; cited from earlier work.

Another series can be described thus: in vivo. The settings on record: rat, po.
Series [3] in a line: Pharmacokinetic test: gavage to rats, active metabolites in plasma and liver by LC-MS/MS. The settings on record: for half-life: T1/2, rats; for half-life / Tlast: gavage of obeticholic acid.
Description: as §1, §2, §3, §4
The conditions of series [4]: clinical treatment of liver diseases such as fatty liver; cited from earlier work.
Where [5] appears, read: rat, plasma, po, 0.0576 mmol/kg.

Description for in vivo: as §1, §2, §3, §4

With `CC[C@H]1[C@@H](O)[C@@H]2[C@H](CC[C@]3(C)[C@@H]([C@H](C)CCC(=O)NCC(=O)O)CC[C@@H]23)[C@@]2(C)CC[C@@H](O)C[C@@H]12` [Compound 4], the “In vivo active compounds in the rats after administration” value (“In vivo active compounds in the rats” for short) in series [1] is on record as “Compound 4”. The same compound came in with a Tlast in series [1] (in vivo) of 24.0 h. For the same compound, in series [1] (in vivo, po), the AUC0-last is 107187 ng·h/g; the “AUC ratio of the obeticholic acid-glycine conjugate 4 in liver/plasma” value was determined as 14.7; the AUC(0-inf) turned out to be 110040 ng·h/g; the “Total AUC in plasma and liver” value is recorded as 117503. The “Total AUC of the Compound 4 in the liver and plasma” value in series [1] (in vivo, po) was 117503. For the same compound, the “AUC Ratio (liver/plasma)” value in series [1] (in vivo, po, 0.0576 mmol/kg) stood at 42.3. Also, the “Effect on activation of the farnesoid X receptor (FXR) activity, compared with obeticholic acid” value in series [2] is “almost the same as the effect of the obeticholic acid”. Also, the Kp in “in vivo” came to 14.7. For the same compound, in the series “in vivo” (0.0576 mmol/kg), the AUC(0-inf) is 7460 ng·h/mL; the exposure AUC(0-t) was 7310 ng·h/mL; the Cmax was 788 ng/mL and 16800 ng/g; the time to peak (Tmax) came out at 4 h. The compound further came in with a mean residence time (MRT inf) in “in vivo” (0.0576 mmol/kg, MRT0-inf) of 6.1 h. In addition, the mean residence time (MRT last) in the series “in vivo” (0.0576 mmol/kg, MRT0-last) stood at 5.56 h. The same compound had a half-life in the series “in vivo” (0.0576 mmol/kg, T1/2) of 4.79 h.
For the compound `CC[C@@H]1C2C[C@H](O)CC[C@]2(C)[C@H]2CC[C@]3(C)[C@@H]([C@H](C)CCC(=O)NCC(=O)OC(C)C)CC[C@H]3[C@@H]2[C@@H]1O` (some centres unmarked) [Compound I-4], the “In vivo active compounds in the rats” value in series [1] is recorded as “Compound 4”. Besides, the “Total effective drug amount in the liver, compared with OCA” value in series [1] (in vivo) was “significantly increased”.
Regarding `CC[C@@H]1C2C[C@H](O)CC[C@]2(C)[C@H]2CC[C@]3(C)[C@@H]([C@H](C)CCC(=O)NCC(=O)OCc4ccccc4)CC[C@H]3[C@@H]2[C@@H]1O` (some centres unmarked) [Compound I-5], in series [1], the “In vivo active compounds in the rats” value is on record as “Compound 4”. Further, in series [1] (in vivo), the “Decrease of AUC of the effective drug in the blood versus direct administration of OCA” value stood at 84%; the “Increase of total AUC of Compound 4 in liver and plasma versus Compound 4 directly administered” value came out at 28%; the “Total effective drug amount in the liver, compared with OCA” value is on record as “significantly increased”. Moreover, in series [1] (in vivo, po), the “AUC ratio of the obeticholic acid-glycine conjugate 4 in liver/plasma” value is given as 18.7; the “Total AUC of the Compound 4 in the liver and plasma” value is reported as 150442.
On to `CCOC(=O)[C@@H](N)Cc1ccc(OC(=O)CNC(=O)CC[C@@H](C)[C@H]2CC[C@H]3[C@@H]4[C@H](O)[C@H](CC)C5C[C@H](O)CC[C@]5(C)[C@H]4CC[C@]23C)cc1` (some centres unmarked) [Compound I-6], for which the “In vivo active compounds in the rats” value in series [1] is on record as “Compound 4”. Also, in series [3] (rats, gavage, same molar dosage as OCA), the “Total effective drug amount in the liver, compared with OCA” value is reported as “significantly increased”.
Turning to `CC[C@H]1[C@@H](O)[C@@H]2[C@H](CC[C@]3(C)[C@@H]([C@H](C)CCC(=O)O)CC[C@@H]23)[C@@]2(C)CC[C@@H](O)C[C@@H]12` [OCA, 6-α-ethylchenodeoxycholic acid], in series [4], the Incidence of pruritus is listed as 63% and the Incidence of rash entry is “up to 32%”. In addition, in series [3] (rat, liver and plasma (AUC ratio), po, 0.0576 mmol/kg), the Kp is 0.663. In series [3] (rat, liver, po, 0.0576 mmol/kg), the Cmax was determined as 17900 ng/g and the time of peak concentration (Tmax) was determined as 0.5 h. In addition, in series [3] (rat, liver, po, 0.0576 mmol/kg, OCA in liver), the half-life was 3.33 h. In series [3] (setting [5]), the AUC(0-inf) came to 50300 ng·h/mL, the AUC(0-t) stood at 48100 ng·h/mL, the Cmax came to 24300 ng/mL and the Tmax worked out at 0.5 h. The half-life in series [3] (rat, plasma, po, 0.0576 mmol/kg, OCA in plasma) was 4.35 h. Also, the Tlast in series [3] (rats, 0.0576 mmol/kg, OCA in liver) amounted to 24.0 h. Further, the Tlast in series [3] (rats, 0.0576 mmol/kg, OCA in plasma) is 24.0 h.
As to `CC[C@H]1[C@@H](O)[C@@H]2[C@H](CC[C@]3(C)[C@@H]([C@H](C)CCC(=O)NCCS(=O)(=O)O)CC[C@@H]23)[C@@]2(C)CC[C@@H](O)C[C@@H]12` [OCA-Tau, reference compound], the “Effect on activation of the farnesoid X receptor (FXR) activity, compared with obeticholic acid” value in series [2] is listed as “almost the same as the effect of the obeticholic acid”.
